# Experimental data published in patent US20210214364A1, “sGC STIMULATORS” (Cyclerion Therapeutics, Inc., priority 2013, published 2021).
# How the values were obtained:
# [1] = tested on: lambs with acute pulmonary hypertension (U-46619); settings: cited from earlier work; for effect on mean arterial pressure / pulmonary vasodilation / transpulmonary cGMP release / systemic arterial oxygenation: awake lambs; for effect on mean arterial pressure / pulmonary vasodilation / transpulmonary cGMP release: U-46619 infusion
# obese mice = settings: cited from earlier work
# NO-deficient rats = settings: cited from earlier work
# [2] = target: T1, soluble guanylate cyclase (sGC) endogenously expressed in HEK293 cells (Homo sapiens, UniProt Q02108+Q02153); assay: sGC-HEK-cGMP assay with LC/MS detection (whole cell); format: cell-based; settings: 10 μM DETA-NONOate, 20 min, concentration eliciting 50% of high control response (30 μM Compound Y), read-out: sGC_HEK_LC MS EC50 Abs
# T1 construct: endogenously expressing soluble guanylate cyclase (sGC); endogenous in cells; host or cells: HEK293
# T1 sequence (Q02153 1-619): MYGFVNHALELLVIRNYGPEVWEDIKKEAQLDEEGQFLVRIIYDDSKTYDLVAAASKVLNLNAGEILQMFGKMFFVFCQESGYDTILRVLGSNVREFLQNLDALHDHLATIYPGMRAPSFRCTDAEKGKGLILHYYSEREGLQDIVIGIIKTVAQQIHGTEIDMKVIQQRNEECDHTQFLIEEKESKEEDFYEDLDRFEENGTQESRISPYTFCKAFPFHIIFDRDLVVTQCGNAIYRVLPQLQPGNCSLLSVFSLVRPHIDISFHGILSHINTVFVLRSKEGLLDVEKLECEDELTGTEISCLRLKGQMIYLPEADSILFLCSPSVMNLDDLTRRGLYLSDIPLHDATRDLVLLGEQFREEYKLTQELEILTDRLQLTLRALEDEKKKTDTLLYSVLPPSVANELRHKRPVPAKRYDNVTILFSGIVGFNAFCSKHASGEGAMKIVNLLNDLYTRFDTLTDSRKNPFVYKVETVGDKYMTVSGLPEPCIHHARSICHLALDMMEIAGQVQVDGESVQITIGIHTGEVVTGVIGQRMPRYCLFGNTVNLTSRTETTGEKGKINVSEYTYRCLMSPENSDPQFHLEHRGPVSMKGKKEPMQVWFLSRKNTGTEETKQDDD
# T1 sequence (Q02108 1-690): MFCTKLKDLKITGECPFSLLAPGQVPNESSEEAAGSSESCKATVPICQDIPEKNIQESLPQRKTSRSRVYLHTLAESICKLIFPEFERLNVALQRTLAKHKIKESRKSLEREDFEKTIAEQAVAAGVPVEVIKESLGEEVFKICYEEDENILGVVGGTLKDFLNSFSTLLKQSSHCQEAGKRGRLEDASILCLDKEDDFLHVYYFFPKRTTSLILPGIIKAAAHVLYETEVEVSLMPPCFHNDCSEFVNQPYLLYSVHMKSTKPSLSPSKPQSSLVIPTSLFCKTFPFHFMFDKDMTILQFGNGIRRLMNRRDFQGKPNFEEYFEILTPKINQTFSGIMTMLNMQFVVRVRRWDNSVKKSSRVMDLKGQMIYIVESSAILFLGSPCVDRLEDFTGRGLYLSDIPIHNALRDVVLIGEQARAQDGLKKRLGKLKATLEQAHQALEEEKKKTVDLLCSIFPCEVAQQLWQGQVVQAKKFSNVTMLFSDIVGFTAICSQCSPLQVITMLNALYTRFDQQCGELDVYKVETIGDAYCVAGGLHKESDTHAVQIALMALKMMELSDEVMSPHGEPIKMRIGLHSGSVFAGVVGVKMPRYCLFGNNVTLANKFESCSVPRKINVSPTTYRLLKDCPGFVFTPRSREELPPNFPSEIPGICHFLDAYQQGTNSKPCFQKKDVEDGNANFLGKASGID
# Description: Example 2: Biological Activity Measurement by the sGC-HEK-cGMP Assay, with LC/MS Detection
# Human embryonic kidney cells (HEK293), endogenously expressing soluble guanylate cyclase (sGC), were used to evaluate the activity of test compounds. Compounds stimulating the sGC enzyme should cause an increase in the intracellular concentration of cGMP. HEK 293 cells were seeded in Dulbecco's Modification of Eagle's Medium supplemented with fetal bovine serum (10% final) and penicillin (100 U/mL)/streptomycin (100 μg/mL) in a 50 μL volume at a density of 1.5×10^4 cells/well in a poly-D-lysine coated 384 well flat bottom plate. Cells were incubated overnight at 37° C. in a humidified chamber with 5% CO2. Medium was aspirated and cells were washed with 1× Hank's Buffered Saline Salt Solution (50 μL). Cells were then incubated for 15 minutes at 37° C. with 50 μL of a 0.5 mM 3-isobutyl-1-methylxanthine (IBMX) solution. Test article and Diethylenetriamine NONOate (DETA-NONOate) solutions (x […] concentration for test article solution and 10 μM concentration for DETA-NONOate solution; wherein x is one of the following concentrations);
# were then added to the assay mixture and the resulting mixture incubated at 37° C. for 20 minutes. After the 20 minute incubation, the assay mixture was aspirated and 10% acetic acid containing 150 ng/mL+3-cGMP (internal standard for LCMS) (50 μL) was added to the cells. The plate was incubated at 4° C. for 30 minutes in the acetic acid solution to stop the reaction and lyse the cells. The plates were then centrifuged at 1,000 g for 3 minutes at 4° C. and the supernatant transferred to a clean reaction plate for LCMS analysis.
# cGMP concentrations were determined from each sample using the LCMS conditions below (Table 2) and calculated standard curve. The standard curve was prepared in 10% acetic acid with 150 ng/mL+3cGMP (isotopically labelled cGMP with a weight 3 units higher than wild type) with the following final concentrations of cGMP in ng/mL: 1, 5, 10, 50, 100, 250, 500, 1000, 2000.
# Data were normalized to a high control using the following equation: 100*(Sample−Low Control)/(High Control−Low Control), where the low control is the average of 16 samples treated with 1% DMSO, and the high control is the average of 16 samples treated with 30 μM of Compound Y depicted below. Data were fit using a 4-parameter fit (log(agonist) vs. response variable slope) using GraphPad Prism Software v.5. n=2 for all compounds. The Absolute EC50 was interpolated from the curve fit and is defined as the concentration at which a given compound elicits 50% of the high control response. Compounds failing to elicit a minimum response of 50% are reported as >30 μM. For compounds run in duplicate or n higher than 2, the result herein given is the geometric mean of the several results obtained.
# [3] = tested on: Guinea pig tracheal smooth muscle (GPTSM); settings: guinea pig tracheal strips, sub-maximal EFS; 95% Cl 0.78-0.94; read-out: IC50, inhibition of baseline EFS-induced contraction; cited from earlier work
# patients with BMD = settings: single oral dose of 20 mg, double-blind randomized placebo-controlled crossover trial; cited from earlier work
smiles,measurement,setting,value
Nc1nc(-c2nn(Cc3ccccc3F)c3ncccc23)ncc1C1CC1 [BAY 41-2272],effect on mean arterial pressure,[1]; inhaled microparticles,without significant effect on mean arterial pressure
same,pulmonary vasodilation,[1]; inhaled microparticles,dose dependent pulmonary vasodilation
same,transpulmonary cGMP release,[1]; inhaled microparticles,increased transpulmonary cGMP release
Nc1nc(-c2nn(Cc3ccccc3F)c3ncccc23)nc(N)c1N1CCOCC1 [BAY 41-8543],magnitude and duration of pulmonary vasodilation induced by iNO,[1]; after inhaling microparticles,augmented
same,effect on mean arterial pressure,[1]; inhaled microparticles,without significant effect on mean arterial pressure
same,pulmonary vasodilation,[1]; inhaled microparticles,dose dependent pulmonary vasodilation
same,transpulmonary cGMP release,[1]; inhaled microparticles,increased transpulmonary cGMP release
same,systemic arterial oxygenation,[1]; inhaled microparticles,increased systemic arterial oxygenation
O=C(O)CCCCN(CCc1ccccc1OCc1ccc(CCc2ccccc2)cc1)Cc1ccc(C(=O)O)cc1 [BAY 58-2667],pulmonary vasodilation and transpulmonary cGMP release after treatment with ODQ,"[1]; inhaled microparticles, after intravenous ODQ",greatly enhanced
same,effect on mean arterial pressure,[1]; inhaled microparticles,without significant effect on mean arterial pressure
same,pulmonary vasodilation,[1]; inhaled microparticles,dose dependent pulmonary vasodilation
same,transpulmonary cGMP release,[1]; inhaled microparticles,increased transpulmonary cGMP release
same,systemic arterial oxygenation,[1]; inhaled microparticles,increased systemic arterial oxygenation
O=C(O)CCCCN(CCc1cc(F)ccc1OCc1ccc(-c2ccc(C(F)(F)F)cc2)cc1)Cc1ccc(C(=O)O)cc1 [BAY 60-2770],effect on overactive bladder,obese mice,ameliorates overactive bladder in obese mice
Nc1nc(-c2nn(Cc3ccccc3F)c3ncccc23)ncc1C1CC1 [BAY-2272],effect on bladder dysfunction,NO-deficient rats,protective effects
CCOC(=O)C1(C)C(=O)Nc2nc(-c3cc(OC(F)F)n(Cc4ccc(F)cc4F)n3)nc(N)c21 (stereo not shown) [Compound I-55],EC50,[2],0.101 to 1 µM
CCOC(=O)C1(C)C(=O)Nc2nc(-c3cc(OC(F)F)n(CCC(F)(F)C(F)(F)F)n3)nc(N)c21 (stereo not shown) [Compound I-57],EC50,[2],≥ 1 µM
Fc1cnc(-c2cc(OC(F)F)n(Cc3cccc(F)c3F)n2)nc1 [Compound I-59],EC50,[2],≥ 1 µM
COc1cc(-c2ncc(F)c(NC[C@@H](C(=O)O)C(C)C)n2)nn1Cc1ccccc1F [Compound I-60],EC50,[2],0.101 to 1 µM
COc1cc(-c2ncc(F)c(N3CCC(O)(CO)CC3)n2)nn1Cc1ccccc1F [Compound I-61],EC50,[2],≥ 1 µM
COc1cc(-c2ncc(F)c(N3CCNC(=O)C3)n2)nn1Cc1ccccc1F [Compound I-62],EC50,[2],≥ 1 µM
COc1cc(-c2ncc(F)c(NCC(O)CO)n2)nn1Cc1ccccc1F (stereo not shown) [Compound I-64],EC50,[2],≥ 1 µM
COc1cc(-c2ncc(F)c(NC(c3nnn[nH]3)C(C)C)n2)nn1Cc1ccccc1F (stereo not shown) [Compound I-65],EC50,[2],≥ 1 µM
COc1cc(-c2ncc(F)c(N(C)CC3(C(=O)O)CCCC3)n2)nn1Cc1ccccc1F [Compound I-66],EC50,[2],0.101 to 1 µM
COc1cc(-c2ncc(F)c(N3CCC(C(=O)O)(C(C)C)CC3)n2)nn1Cc1ccccc1F [Compound I-67],EC50,[2],0.101 to 1 µM
COc1cc(-c2ncc(F)c(N3CCC(C)(C(=O)O)CC3)n2)nn1Cc1ccccc1F [Compound I-68],EC50,[2],0.101 to 1 µM
COc1cc(-c2ncc(F)c(NCCS(N)(=O)=O)n2)nn1Cc1ccccc1F [Compound I-69],EC50,[2],≥ 1 µM
COc1cc(-c2ncc(F)c(N3CCC[C@H](C)[C@@H]3C(=O)O)n2)nn1Cc1ccccc1F [Compound I-70],EC50,[2],0.101 to 1 µM
CC1(C(N)=O)C(=O)Nc2nc(-c3cc(OC(F)F)n(Cc4ccccc4F)n3)nc(N)c21 (stereo not shown) [Compound I-71],EC50,[2],0.101 to 1 µM
CC(C)[N+]1(C)[C@@H]2CC[C@H]1C[C@@H](OC(=O)C(CO)c1ccccc1)C2 (stereo partly shown) [Ipratropium bromide],IC50,[3],0.00086 µM
CN1CC(=O)N2[C@H](c3ccc4c(c3)OCO4)c3[nH]c4ccccc4c3C[C@@H]2C1=O [tadalafil],normal blood flow regulation,patients with BMD,restored in eight of nine patients
